Paper PMC7899551, “Phase 1 study of Z-endoxifen in patients with advanced gynecologic, desmoid, and hormone receptor-positive solid tumors” (Oncotarget, 2021)
Where two headings read alike, the source gives them in different places.

Assay: Plasma pharmacokinetics of Z-endoxifen (HPLC assay, non-compartmental analysis)
Format: in vivo, human
Conditions: human, plasma, po
Method: This was an open-label trial of Z-endoxifen in patients with advanced solid tumors (https://clinicaltrials.gov/ identifier: NCT01273168). Z-endoxifen-HCl was supplied by the Pharmaceutical Management Branch, National Cancer Institute, as 20 and 40 mg capsules; agent was administered orally once daily on a continuous schedule in 28-day cycles with a starting dose of 20 mg/day taken either 1 hour before or 2 hours after meals. Dose escalation followed a traditional 3+3 design in which patients were dose-escalated to the next dose level (DL) in cohorts of 3 patients until dose-limiting toxicity (DLT) was observed. DLT was defined as an adverse event that occurred during cycle 1, was thought to be related to study drug administration, and met one of the following criteria: grade ≥ 3 non-hematologic toxicities (except diarrhea, nausea and vomiting, alopecia, rising creatinine or electrolyte toxicities that resolved within 24 hours, or intolerable estrogen withdrawal symptoms) or grade ≥ 3 hematologic toxicities (except neutropenia lasting less than 5 days, lymphopenia, or anemia). Eight dose levels (DL1-8) were examined: 20, 40, 60, 100, 140, 200, 280, and 360 mg, respectively. Two patients at DL8 received the free base form of Z-endoxifen on day 1 rather than the hydrochloride salt to assess the pharmacokinetics of that formulation.
A 3-mL blood sample was collected in a K2 EDTA tube on day 1 of cycle 1 before drug administration and at the following times post-first dose: 0.5, 1, 2, 3, 4, 6, 8, and 24 hours. Samples were collected at the same time points on day 28 of cycle 1 for DL1-6 until a protocol amendment eliminated the requirement for these samples at the higher dose levels. Samples were wrapped in aluminum foil after collection to protect from light exposure. A 10-mL aliquot of urine was collected before agent administration on cycle 1 day 1, for 24 hours after dosing on day 1, and before drug administration on cycle 2 day 1; samples were refrigerated prior to analysis.
Plasma and urine concentrations of Z- and E-endoxifen were measured using a validated, post-column fluorescence derivatization HPLC assay. Non-compartmental pharmacokinetic parameters were calculated using WinNonlin version 7.0 (Pharsight Corp., Mountainview, CA, USA). A 2 μM Cmax target was established for day 28 plasma concentration. The amount of Z-endoxifen excreted in urine was measured over a 24-hour collection period.

CC/C(=C(\c1ccc(O)cc1)c1ccc(OCCNC)cc1)c1ccccc1 [Z-endoxifen]
Cmax (20 mg/day, DL1 20 mg/day oral, day 28, mean, read-out: Cmax, Mean): 286 ng/mL | Tmax (20 mg/day, DL1 20 mg/day oral, day 28, mean, read-out: Tmax, Mean): 0.7 h | AUC(0-t) (40 mg, DL2 40 mg oral, day 1, individual patients, read-out: AUC(0-24h)): 1290 ng·h/mL | Cmax (40 mg, DL2 40 mg oral, day 1, individual patients, read-out: Cmax): 83.6 ng/mL | AUC(0-t) (40 mg, DL2 40 mg oral, day 1, mean, read-out: AUC(0-24h), Mean): 1650 ng·h/mL | concentration at 24 h (40 mg, DL2 40 mg oral, day 1, mean, read-out: C24h, Mean): 52.5 ng/mL | Cmax (40 mg, DL2 40 mg oral, day 1, mean, read-out: Cmax, Mean): 112 ng/mL | AUC(0-t) (40 mg/day, DL2 40 mg/day oral, day 28, individual patients, read-out: AUC(0-24h)): 5570 ng·h/mL | half-life (40 mg/day, DL2 40 mg/day oral, day 28, individual patients, read-out: Adjusted Half-Life (converted)): 2360 min | concentration at 24 h (40 mg/day, DL2 40 mg/day oral, day 28, individual patients, read-out: C24h): 136 ng/mL | Cmax (40 mg/day, DL2 40 mg/day oral, day 28, individual patients, read-out: Cmax): 321 ng/mL | AUC(0-t) (40 mg/day, DL2 40 mg/day oral, day 28, mean, read-out: AUC(0-24h), Mean): 4760 ng·h/mL | concentration at 24 h (40 mg/day, DL2 40 mg/day oral, day 28, mean, read-out: C24h, Mean): 147 ng/mL | Cmax (40 mg/day, DL2 40 mg/day oral, day 28, mean, read-out: Cmax, Mean): 258 ng/mL | Tmax (40 mg/day, DL2 40 mg/day oral, day 28, mean, read-out: Tmax, Mean): 3.3 h | AUC(0-t) (60 mg, DL3 60 mg oral, day 1, individual patients, read-out: AUC(0-24h)): 1620 ng·h/mL | concentration at 24 h (60 mg, DL3 60 mg oral, day 1, individual patients, read-out: C24h): 89.7 ng/mL | Cmax (60 mg, DL3 60 mg oral, day 1, individual patients, read-out: Cmax): 89.7 ng/mL | AUC(0-t) (60 mg, DL3 60 mg oral, day 1, mean, read-out: AUC(0-24h), Mean): 2140 ng·h/mL | concentration at 24 h (60 mg, DL3 60 mg oral, day 1, mean, read-out: C24h, Mean): 82.7 ng/mL | Cmax (60 mg, DL3 60 mg oral, day 1, mean, read-out: Cmax, Mean): 122 ng/mL | Tmax (60 mg, DL3 60 mg oral, day 1, mean, read-out: Tmax, Mean): 12 h | AUC(0-t) (60 mg/day, DL3 60 mg/day oral, day 28, mean, read-out: AUC(0-24h), Mean): 8080 ng·h/mL | concentration at 24 h (60 mg/day, DL3 60 mg/day oral, day 28, mean, read-out: C24h, Mean): 345 ng/mL | Cmax (60 mg/day, DL3 60 mg/day oral, day 28, mean, read-out: Cmax, Mean): 417 ng/mL | Tmax (60 mg/day, DL3 60 mg/day oral, day 28, mean, read-out: Tmax, Mean): 10.8 h | AUC(0-t) (100 mg, DL4 100 mg oral, day 1, individual patients, read-out: AUC(0-24h)): 4640 ng·h/mL | concentration at 24 h (100 mg, DL4 100 mg oral, day 1, individual patients, read-out: C24h): 133 ng/mL | Cmax (100 mg, DL4 100 mg oral, day 1, individual patients, read-out: Cmax): 264 ng/mL | Tmax (100 mg, DL4 100 mg oral, day 1, individual patients, read-out: Tmax): 1 h | AUC(0-t) (100 mg, DL4 100 mg oral, day 1, mean, read-out: AUC(0-24h), Mean): 5000 ng·h/mL | concentration at 24 h (100 mg, DL4 100 mg oral, day 1, mean, read-out: C24h, Mean): 155 ng/mL | Cmax (100 mg, DL4 100 mg oral, day 1, mean, read-out: Cmax, Mean): 296 ng/mL | Tmax (100 mg, DL4 100 mg oral, day 1, mean, read-out: Tmax, Mean): 4.3 h | AUC(0-t) (100 mg/day, DL4 100 mg/day oral, day 28, individual patients, read-out: AUC(0-24h)): 13300 ng·h/mL | half-life (100 mg/day, DL4 100 mg/day oral, day 28, individual patients, read-out: Adjusted Half-Life (converted)): 2210 min | concentration at 24 h (100 mg/day, DL4 100 mg/day oral, day 28, individual patients, read-out: C24h): 428 ng/mL | Cmax (100 mg/day, DL4 100 mg/day oral, day 28, individual patients, read-out: Cmax): 1300 ng/mL | Tmax (100 mg/day, DL4 100 mg/day oral, day 28, individual patients, read-out: Tmax): 2 h | AUC(0-t) (100 mg/day, DL4 100 mg/day oral, day 28, mean (one patient), read-out: AUC(0-24h), Mean): 13300 ng·h/mL | half-life (100 mg/day, DL4 100 mg/day oral, day 28, mean (one patient), read-out: Adjusted Half-Life, Mean (converted)): 2210 min | concentration at 24 h (100 mg/day, DL4 100 mg/day oral, day 28, mean (one patient), read-out: C24h, Mean): 428 ng/mL | Cmax (100 mg/day, DL4 100 mg/day oral, day 28, mean, read-out: Cmax, Mean): 1010 ng/mL | Tmax (140 mg, DL5 140 mg oral, day 1, individual patients, read-out: Tmax): 3 h | AUC(0-t) (140 mg, DL5 140 mg oral, day 1, mean, read-out: AUC(0-24h), Mean): 9760 ng·h/mL | concentration at 24 h (140 mg, DL5 140 mg oral, day 1, mean, read-out: C24h, Mean): 311 ng/mL | Cmax (140 mg, DL5 140 mg oral, day 1, mean, read-out: Cmax, Mean): 610 ng/mL | Tmax (140 mg, DL5 140 mg oral, day 1, mean, read-out: Tmax, Mean): 4.3 h | AUC(0-t) (140 mg/day, DL5 140 mg/day oral, day 28, individual patients, read-out: AUC(0-24h)): 18200 ng·h/mL | half-life (140 mg/day, DL5 140 mg/day oral, day 28, individual patients, read-out: Adjusted Half-Life (converted)): 1990 min | concentration at 24 h (140 mg/day, DL5 140 mg/day oral, day 28, individual patients, read-out: C24h): 598 ng/mL | Cmax (140 mg/day, DL5 140 mg/day oral, day 28, individual patients, read-out: Cmax): 973 ng/mL | Tmax (140 mg/day, DL5 140 mg/day oral, day 28, individual patients, read-out: Tmax): 1 h | AUC(0-t) (140 mg/day, DL5 140 mg/day oral, day 28, mean, read-out: AUC(0-24h), Mean): 17400 ng·h/mL | half-life (140 mg/day, DL5 140 mg/day oral, day 28, mean, read-out: Adjusted Half-Life, Mean (converted)): 1840 min | concentration at 24 h (140 mg/day, DL5 140 mg/day oral, day 28, mean, read-out: C24h, Mean): 563 ng/mL | Cmax (140 mg/day, DL5 140 mg/day oral, day 28, mean, read-out: Cmax, Mean): 1110 ng/mL | AUC(0-t) (200 mg, DL6 200 mg oral, day 1, individual patients, read-out: AUC(0-24h)): 6340 ng·h/mL | concentration at 24 h (200 mg, DL6 200 mg oral, day 1, individual patients, read-out: C24h): 279 ng/mL | Tmax (200 mg, DL6 200 mg oral, day 1, individual patients, read-out: Tmax): 2 h | AUC(0-t) (200 mg, DL6 200 mg oral, day 1, mean, read-out: AUC(0-24h), Mean): 9220 ng·h/mL | concentration at 24 h (200 mg, DL6 200 mg oral, day 1, mean, read-out: C24h, Mean): 336 ng/mL | Cmax (200 mg, DL6 200 mg oral, day 1, mean, read-out: Cmax, Mean): 517 ng/mL | half-life (200 mg/day, DL6 200 mg/day oral, day 28, individual patients, read-out: Adjusted Half-Life (converted)): 2090 min | AUC(0-t) (200 mg/day, DL6 200 mg/day oral, day 28, mean, read-out: AUC(0-24h), Mean): 30800 ng·h/mL | concentration at 24 h (200 mg/day, DL6 200 mg/day oral, day 28, mean, read-out: C24h, Mean): 1070 ng/mL | Cmax (200 mg/day, DL6 200 mg/day oral, day 28, mean, read-out: Cmax, Mean): 1640 ng/mL | Cmax (280 mg, DL7 280 mg oral, day 1, individual patients, read-out: Cmax): 888 ng/mL | Tmax (280 mg, DL7 280 mg oral, day 1, individual patients, read-out: Tmax): 3 h | AUC(0-t) (280 mg, DL7 280 mg oral, day 1, mean, read-out: AUC(0-24h), Mean): 15000 ng·h/mL | concentration at 24 h (280 mg, DL7 280 mg oral, day 1, mean, read-out: C24h, Mean): 468 ng/mL | Cmax (280 mg, DL7 280 mg oral, day 1, mean, read-out: Cmax, Mean): 930 ng/mL | Tmax (360 mg, DL8 360 mg oral, day 1, individual patients, read-out: Tmax): 2 h | AUC(0-t) (360 mg, DL8 360 mg oral, day 1, mean (excluding patients 35 and 36), read-out: AUC(0-24h), Mean): 20500 ng·h/mL | concentration at 24 h (360 mg, DL8 360 mg oral, day 1, mean (excluding patients 35 and 36), read-out: C24h, Mean): 676 ng/mL | Cmax (360 mg, DL8 360 mg oral, day 1, mean (excluding patients 35 and 36), read-out: Cmax, Mean): 1310 ng/mL | Tmax (360 mg, DL8 360 mg oral, day 1, mean (excluding patients 35 and 36), read-out: Tmax, Mean): 3.9 h | AUC(0-t) (360 mg, HCl salt, 360 mg oral, day 2 (after free base on day 1), mean of patients 35 and 36, read-out: AUC(0–24 h), Mean): 41600 ng·h/mL | concentration at 24 h (360 mg, HCl salt, 360 mg oral, day 2 (after free base on day 1), mean of patients 35 and 36, read-out: C24 h, Mean): 1470 ng/mL | concentration at 24 h (360 mg, HCl salt, 360 mg oral, day 2 (after free base on day 1), patients 35 and 36 individually, read-out: C24 h): 827 ng/mL
